The test system of one data set is Bovine brain ECs. Type of data set: cell-based.
The test system of the next data set is cAMP levels. Format: cell-based.
The next data set relates to BBB. Set-up: species or system rats. As to conditions: rat, in vivo.

The results in this text go back to paper PMC2289219 (The Journal of Cell Biology, 1991).

Consider `OC[C@H]1O[C@@](CO)(O[C@H]2O[C@H](CO)[C@@H](O)[C@H](O)[C@H]2O)[C@@H](O)[C@@H]1O` [sucrose], for which, in the data set with monolayers of brain ECs, the “Flux across low resistance monolayers” value is on record as “much greater than that across high resistance monolayers”.

Regarding Atrial natriuretic factor, the “Effect on resistance (elevated cGMP)” value in the data set with Bovine brain ECs was “simi- lar effects”.

Consider RO20-1724, for which the “Effect on electrical resistance (agents that elevate cAMP)” value (“Effect on electrical resistance” for short) in the data set with Bovine brain ECs is reported as “increases rapidly”. The “Increase in cAMP levels” value in the data set with cAMP levels was “two to threefold increase”.

For the compound PDGF, the “Whether the factor accounts for the activity of astrocyte CM” value with Bovine brain ECs is listed as “could not be accounted for fully”.

For `CC(C)NCC(O)COc1cccc2ccccc12` (centres unmarked) [propranolol], the “Flux across high resistance monolayers” value in the data set on monolayers of brain ECs (Fig. 7 top, about 300 nM labeled tracer, apical to basolateral, 37) is on record as “moved rapidly”.

In the case of `C=C[C@@]1(C)CC(=O)[C@]2(O)[C@@]3(C)[C@@H](O)CCC(C)(C)[C@@H]3[C@H](O)[C@H](OC(C)=O)[C@@]2(C)O1` [forskolin], the “Effect on electrical resistance” value in the data set with Bovine brain ECs is recorded as “also effective”. Further, the “Increase in cAMP levels” value in the data set on cAMP levels was “two to threefold increase”.

Turning to IGF-1, in the data set on Bovine brain ECs, the “Whether the factor accounts for the activity of astrocyte CM” value is “could not be accounted for fully”.

`O=S(=O)(NCCNCC=Cc1ccc(Br)cc1)c1cccc2cnccc12` [H-89, N-[2-(p-bromocinnamylamino)ethyl]-5-isoquinolinesulfonamide]: the “Effect of protein kinase inhibitors on resistance” value in the data set on Bovine brain ECs is recorded as “decreased”.

With calcitonin gene-related peptide, the “Effect on electrical resistance” value in the data set on Bovine brain ECs was “also effective”.

Consider `CN[C@@H]1C[C@H]2O[C@@](C)([C@@H]1OC)n1c3ccccc3c3c4c(c5c6ccccc6n2c5c31)C(=O)NC4` [staurosporine], for which, in the data set with BBB, the “Increase in ability of peripherally administered BSA to enter the brain” value is given as “three to fivefold” and the “Increase in ability of peripherally administered sucrose to enter the brain” value is “three to fivefold”.

For “8-(4-chlorophenylthio)-adenosine-3':5' mono- phosphate, cyclic [CPTcAMP]”, in the data set on Bovine brain ECs, the “Effect on electrical resistance” value is on record as “increases rapidly”.
